Results taken from US10827758B2, “Relating to water treatment” (BWA WATER ADDITIVES UK LIMITED, priority 2014, dated 2020).

Assays:
Desulfovibrio vulgaris = assay: Log 10 Reduction of anaerobic bacterium in dosed bacterial suspension (serial dilution into API RP 38 media vials); type: cell-based; settings: TDS 30,000 mg l^-1, ppm dose per Example, 6 = complete kill
Protocol: (§1) A suspension of Desulfovibrio vulgaris plus Enterobacter aerogenes bacteria containing from 1×10^6 to 1×10^8 cells/mL was prepared in sterile pH 8 phosphate buffer containing varying levels of sodium chloride to give the desired total dissolved solids (TDS) concentration. Aliquots of this suspension were dosed with the indicated concentrations of the phosphonium compound (a) and stabilised halogen containing composition (b) with the concentrations being measured as ppm by weight of the stated composition in the dosed suspension. The mixtures were allowed to stand at room temperature. At the designated contact times, each mixture was sampled to determine the total number of viable cells of both Desulfovibrio vulgaris and Enterobacter aerogenes by serial 10-fold dilution into API RP 38 media vials and anaerobic acid producing media vials, respectively. The vials were incubated at 37° C. for 72 hours. Results were recorded as cells per millilitre.
(§2) Aqueous media inoculated with anaerobe and aerobe culture and having a TDS of 30,000 mg l^−1 was treated with treatment agents comprising: (i) stabilised halogen containing composition; (ii) tri n-butyl n-tetradecyl phosphonium chloride (TTPC) or (iii) a combination of stabilised halogen containing composition and TTPC.
(§3) The efficacy of the treatment agents was evaluated by measuring the Log 10 Reduction of the anaerobic bacterium Desulfovibrio vulgaris and the facultative anaerobeic bacterium Enterobacter aerogenes after contact times of 1 hour, 4 hours and 24 hours as detailed in Table 1. For TTPC the stated ppm value relates to the amount of TTPC added (active). For the stabilised bromine composition the stated ppm relates to the amount of Bromax 7.1 added (product)
(§4) A Log 10 reduction of 6 represents a complete kill for anaerobes and a Log 10 reduction of 8 represents a complete kill for facultative anaerobes.

Enterobacter aerogenes = assay: Log 10 Reduction of facultative anaerobic bacterium in dosed bacterial suspension (serial dilution into anaerobic acid producing media vials); type: cell-based; settings: TDS 30,000 mg l^-1, ppm dose per Example, 8 = complete kill
Protocol: as §1, §2, §3, §4

CCCCCCCCCCCCCC[P+](CCCC)(CCCC)CCCC.[Cl-] [Example 1, tri n-butyl n-tetradecyl phosphonium chloride]
Log10 Reduction Anaerobes (Desulfovibrio vulgaris; contact time 1 hour): 3
Log10 Reduction Facultative Anaerobes (Enterobacter aerogenes; contact time 1 hour): 1

CCCCCCCCCCCCCC[P+](CCCC)(CCCC)CCCC.[Cl-] [Example 2, tri n-butyl n-tetradecyl phosphonium chloride]
Log10 Reduction Anaerobes (Desulfovibrio vulgaris; contact time 1 hour): 6
Log10 Reduction Facultative Anaerobes (Enterobacter aerogenes; contact time 1 hour): 4

CCCCCCCCCCCCCC[P+](CCCC)(CCCC)CCCC.[Cl-] [Example 9, tri n-butyl n-tetradecyl phosphonium chloride]
Log10 Reduction Anaerobes (Desulfovibrio vulgaris; contact time 4 hours): 6
Log10 Reduction Facultative Anaerobes (Enterobacter aerogenes; contact time 4 hours): 5

CCCCCCCCCCCCCC[P+](CCCC)(CCCC)CCCC.[Cl-] [Example 17, tri n-butyl n-tetradecyl phosphonium chloride]
Log10 Reduction Anaerobes (Desulfovibrio vulgaris; contact time 24 hours): 6
Log10 Reduction Facultative Anaerobes (Enterobacter aerogenes; contact time 24 hours): 5

CCCCCCCCCCCCCC[P+](CCCC)(CCCC)CCCC.[Cl-] [Example 18, tri n-butyl n-tetradecyl phosphonium chloride]
Log10 Reduction Anaerobes (Desulfovibrio vulgaris; contact time 24 hours): 6
Log10 Reduction Facultative Anaerobes (Enterobacter aerogenes; contact time 24 hours): 8
